Data as given in ChEMBL document CHEMBL4049402, “Synthesis and cytotoxic activity of novel tetrahydrobenzodifuran-imidazolium salt derivatives” (Bioorg Med Chem Lett, 2017).

Tests used:
[1] = system: HL-60; assay: Cytotoxicity against human HL60 cells after 48 hrs by MTT assay; assay type: functional, cell-based; conditions: Homo sapiens, HL-60, 48 h
[2] = system: SMMC-7721; assay: Cytotoxicity against human SMMC7721 cells after 48 hrs by MTT assay; assay type: functional, cell-based; conditions: Homo sapiens, SMMC-7721, 48 h
[3] = system: A549; assay: Cytotoxicity against human A549 cells after 48 hrs by MTT assay; assay type: functional, cell-based; conditions: Homo sapiens, A549, 48 h
[4] = system: MCF7; assay: Cytotoxicity against human MCF7 cells after 48 hrs by MTT assay; assay type: functional, cell-based; conditions: Homo sapiens, MCF7, 48 h
[5] = system: SW480; assay: Cytotoxicity against human SW480 cells after 48 hrs by MTT assay; assay type: functional, cell-based; conditions: Homo sapiens, SW480, 48 h
[6] = system: SMMC-7721; assay: Potency index, ratio of cisplatin IC50 to compound IC50 for human SMMC7721 cells; assay type: functional
[7] = system: MCF7; assay: Potency index, ratio of cisplatin IC50 to compound IC50 for human MCF7 cells; assay type: functional
[8] = system: SMMC-7721; assay: Induction of apoptosis in human SMMC7721 cells assessed as live cells at 4 uM after 48 hrs by Annexin-V-FITC/propidium iodide staining based flow cytometry (reference value: 92.6%); assay type: functional
[9] = system: SMMC-7721; assay: Induction of apoptosis in human SMMC7721 cells assessed as early apoptotic cells at 4 uM after 48 hrs by Annexin-V-FITC/propidium iodide staining based flow cytometry (reference value: 1.82%); assay type: functional
[10] = system: SMMC-7721; assay: Induction of apoptosis in human SMMC7721 cells assessed as late apoptotic cells at 4 uM after 48 hrs by Annexin-V-FITC/propidium iodide staining based flow cytometry (reference value: 2.42%); assay type: functional
[11] = system: SMMC-7721; assay: Induction of apoptosis in human SMMC7721 cells assessed as necrotic cells at 4 uM after 48 hrs by Annexin-V-FITC/propidium iodide staining based flow cytometry (reference value: 3.18%); assay type: functional
[12] = system: SMMC-7721; assay: Induction of apoptosis in human SMMC7721 cells assessed as live cells at 8 uM after 48 hrs by Annexin-V-FITC/propidium iodide staining based flow cytometry (reference value: 92.6%); assay type: functional
[13] = system: SMMC-7721; assay: Induction of apoptosis in human SMMC7721 cells assessed as early apoptotic cells at 8 uM after 48 hrs by Annexin-V-FITC/propidium iodide staining based flow cytometry (reference value: 1.82%); assay type: functional
[14] = system: SMMC-7721; assay: Induction of apoptosis in human SMMC7721 cells assessed as late apoptotic cells at 8 uM after 48 hrs by Annexin-V-FITC/propidium iodide staining based flow cytometry (reference value: 2.42%); assay type: functional
[15] = system: SMMC-7721; assay: Induction of apoptosis in human SMMC7721 cells assessed as necrotic cells at 8 uM after 48 hrs by Annexin-V-FITC/propidium iodide staining based flow cytometry (reference value: 3.18%); assay type: functional
[16] = system: SMMC-7721; assay: Induction of apoptosis in human SMMC7721 cells assessed as live cells at 12 uM after 48 hrs by Annexin-V-FITC/propidium iodide staining based flow cytometry (reference value: 92.6%); assay type: functional
[17] = system: SMMC-7721; assay: Induction of apoptosis in human SMMC7721 cells assessed as early apoptotic cells at 12 uM after 48 hrs by Annexin-V-FITC/propidium iodide staining based flow cytometry (reference value: 1.82%); assay type: functional
[18] = system: SMMC-7721; assay: Induction of apoptosis in human SMMC7721 cells assessed as late apoptotic cells at 12 uM after 48 hrs by Annexin-V-FITC/propidium iodide staining based flow cytometry (reference value: 2.42%); assay type: functional
[19] = system: SMMC-7721; assay: Induction of apoptosis in human SMMC7721 cells assessed as necrotic cells at 12 uM after 48 hrs by Annexin-V-FITC/propidium iodide staining based flow cytometry (reference value: 3.18%); assay type: functional
[20] = system: SMMC-7721; assay: Induction of apoptosis in human SMMC7721 cells assessed as live cells at 16 uM after 48 hrs by Annexin-V-FITC/propidium iodide staining based flow cytometry (reference value: 92.6%); assay type: functional
[21] = system: SMMC-7721; assay: Induction of apoptosis in human SMMC7721 cells assessed as early apoptotic cells at 16 uM after 48 hrs by Annexin-V-FITC/propidium iodide staining based flow cytometry (reference value: 1.82%); assay type: functional
[22] = system: SMMC-7721; assay: Induction of apoptosis in human SMMC7721 cells assessed as late apoptotic cells at 16 uM after 48 hrs by Annexin-V-FITC/propidium iodide staining based flow cytometry (reference value: 2.42%); assay type: functional
[23] = system: SMMC-7721; assay: Induction of apoptosis in human SMMC7721 cells assessed as necrotic cells at 16 uM after 48 hrs by Annexin-V-FITC/propidium iodide staining based flow cytometry (reference value: 3.18%); assay type: functional
[24] = system: SMMC-7721; assay: Cell cycle arrest in human SMMC7721 cells assessed as accumulation at G0/G1 phase at 2 uM after 24 hrs by propidium iodide staining based flow cytometry (reference value: 70.12 +/- 0.18%); assay type: functional
[25] = system: SMMC-7721; assay: Cell cycle arrest in human SMMC7721 cells assessed as accumulation at G0/G1 phase at 4 uM after 24 hrs by propidium iodide staining based flow cytometry (reference value: 70.12 +/- 0.18%); assay type: functional
[26] = system: SMMC-7721; assay: Cell cycle arrest in human SMMC7721 cells assessed as accumulation at S phase at 2 uM after 24 hrs by propidium iodide staining based flow cytometry (reference value: 20.18 +/- 0.02%); assay type: functional
[27] = system: SMMC-7721; assay: Cell cycle arrest in human SMMC7721 cells assessed as accumulation at S phase at 4 uM after 24 hrs by propidium iodide staining based flow cytometry (reference value: 20.18 +/- 0.02%); assay type: functional
[28] = system: SMMC-7721; assay: Cell cycle arrest in human SMMC7721 cells assessed as accumulation at G2/M phase at 2 uM after 24 hrs by propidium iodide staining based flow cytometry (reference value: 3.12 +/- 0.02%); assay type: functional
[29] = system: SMMC-7721; assay: Cell cycle arrest in human SMMC7721 cells assessed as accumulation at G2/M phase at 4 uM after 24 hrs by propidium iodide staining based flow cytometry (reference value: 3.12 +/- 0.02%); assay type: functional
[30] = system: SMMC-7721; assay: Cell cycle arrest in human SMMC7721 cells assessed as increase in G1 population after 24 hrs by propidium iodide staining based flow cytometry; assay type: functional

Compound `Cc1n(Cc2c3c(cc4c2OCC4)OCC3)c2ccccc2[n+]1CC(=O)c1ccc2ccccc2c1.[Br-]` has an IC50 [1] of 800 nM, an IC50 [2] of 4.52 µM and an IC50 [3] of 6.1 µM. For the same compound, the IC50 [4] was 1650 nM, the IC50 [5] was 4.49 µM and the “Ratio IC50” value [6] was 2.7. For the same compound, the “Ratio IC50” value [7] was 8.4, the Activity [8] was 91.9% and the Activity [9] was 1.43%. The Activity [10] was 3.18%, the Activity [11] was 3.44% and the Activity [12] was 87.1%. The Activity [13] was 0.86%, the Activity [14] was 4.64% and the Activity [15] was 7.42%. The Activity [16] was 30.7%, the Activity [17] was 0.98% and the Activity [18] was 37.3%. For the same compound, the Activity [19] was 31%, the Activity [20] was 0.69% and the Activity [21] was 0.43%. The Activity [22] was 92.4%, the Activity [23] was 6.48% and the Activity [24] was 70.58%. For the same compound, the Activity [25] was 79.57%, the Activity [26] was 14.85% and the Activity [27] was 8.75%. The Activity [28] was 4.37%, the Activity [29] was 0.94% and the Activity [30] was “Dose-dependent effect”.
